Literature values, collected in patent US8084059B2, “Antidepressant dosage form” (ALZA Corporation, priority 1993, dated 2011).

What was measured:
[1] = system: monoamine oxidase; conditions: in vitro
[2] = system: reserpine-induced hypothermia; conditions: in vivo
[3] = system: cyclicadenosine monophosphate subsensitivity; conditions: after both acute and chronic administration
[4] = system: neuronal uptake of dopamine; conditions: in vitro
[5] = humans
[6] = system: effects of levodopa; conditions: in vivo
[7] = system: histamine-induced corticotropin release; conditions: in vivo
[8] = system: neuronal uptake of morepinephrine; conditions: in vitro

SMILES: COc1ccc(C(CN(C)C)C2(O)CCCCC2)cc1 (centres unmarked) [1-[2-(dimethylamino)-1-(4-methoxyphenyl)ethyl]cyclohexanol]
- inhibition of monoamine oxidase [1]: does not inhibit
- effect on reserpine-induced hypothermia [2]: antagonizes
- cyclicadenosine monophosphate subsensitivity [3]: induces
- neuronal uptake of dopamine [4]: prevents
- antidepressant activity [5]: excellent
- effect on the effects of levodopa [6]: potentiates
- effect on histamine-induced corticotropin release [7]: reduces
- neuronal uptake of morepinephrine [8]: prevents
